Measurements: patent US20240325319A1, “INHIBITORS OF AMYLOID BETA OLIGOMERIZATION AND THERAPEUTIC USES THEREOF” (Northwestern University, priority 2021, published 2024)
“And” between values parts separate entries of the source, which are not always exact repeats. Equal values may be shown once. “Also recorded” adds a separate entry of the source.

Tests used:
[1] = test system: AβOs bound to neurons; test: AβOs bound to dendrites of hippocampal neurons treated with Aβ42 monomer (immunofluorescence, NU2/NU4); type: cell-based, rat
Experimental: Neurons were pre-treated with 3 μM NU-9 for 30 min, then treated with Aβ42 monomer for 24 hr. Cells were fixed with 3.7% formaldehyde and stained for AβOs (NU4, green), tau phosphorylated at Ser396 (pSer396, red) and mounted on slides before imaging.
Cells were fixed with 3.7% formaldehyde and stained for AβOs (NU4, green), tau phosphorylated at Thr205 (pThr205, red), and nuclei (DAPI, blue) and mounted on slides before imaging.
FIG. 3. Neurons were pre-treated with 3 μM NU-9 for 30 min, then treated with Aβ42 monomer for 30 min. Cells were fixed with 3.7% formaldehyde and stained for AβOs (NU2, green), β-II tubulin (TUBB3, red), and nuclei (DAPI, blue) and mounted on slides before imaging.
FIG. 4. E18 hippocampal neurons were cultured until 21 div and pre-treated with 3, 15, or 30 μM NU-9 for 30 minutes, followed by treatment with 500 nM Aβ42 for 30 minutes. Cells were fixed with 3.7% formaldehyde and stained for AβOs (NU2, green), […] (red) and nuclei (DAPI, blue), and mounted on slides before imaging at 63×.
NU-9 reduces the number of amyloid beta oligomers bound to neurites. Primary rat hippocampal neurons in cell culture were pre-treated with NU-9 for 30 minutes and then treated with amyloid beta 1-42 (Aβ) monomer. […] To characterize the dose-response effect of NU-9 on AβO formation, cells were pretreated with increasing doses of NU-9 (3, 15, and 30 μM), and then treated with Aβ for 30 minutes.
The decrease was 81% (p=0.0005). We further characterized the effect of NU-9, to narrow down potential candidate mechanisms for this effect.

[2] = target: T1, Aβ42 (Homo sapiens, UniProt P05067); test: AβO formation from Aβ monomer in the absence of cells (dot blot, coverslips, fresh or conditioned media); type: biochemical
T1 construct: then treated with amyloid beta 1-42 (Aβ) monomer
Experimental: FIG. 5. A) NU-9 and Aβ were combined in F12 media, in the absence of cells, and incubated at 37° C. B) The concentration of AβOs was probed with NU2 antibody via dot blot after 24 hours in the conditions containing 3 μM NU-9 with or without Aβ.
FIG. 6. In dishes without cells, but in conditions that mimicked cell culture, 3 μM NU-9 and 500 nM Aβ42 for 30 minutes fixed with 3.7% formaldehyde and stained for AβOs (NU2, green) and mounted on slides before imaging at 63×.
FIG. 9. The effect of NU-9 requires the presence of cells. Conditioned media was collected from mature hippocampal neuron. DMSO control (Control), Aβ monomer (Aβ), or NU-9 and then Aβ (NU-9+Aβ in cond. media) were added, then concentration of AβOs were analyzed by dot blot. Conditioned media was also collected from neurons treated with NU-9, then Aβ was added to this (Media from NU-9 in cells+Aβ). […] Standard curve was created in media using 0-1000 fmol AβOs. The dot blot was labelled with NU2 (anti-AβO).
FIG. 10. […] (Conditioned Media) A dot blot probed with NU2 was used to measure AβO abundance in solutions of conditioned media to which DMSO vehicle (control), Aβ, and NU-9 followed by Aβ were added for 30 min each. The bottom row corresponds to samples in which cells were treated with NU-9 for 30 min, then extracellular media was removed, and Aβ was added to the media for 30 min. The standard curve at the top was made from 0-1000 fmol preformed AβOs. (Fresh Media) A dot blot probed with NU2 was used to measure AβO abundance in solutions of culture media to which DMSO vehicle (control), Aβ, and NU-9 (3-300 μM) followed by Aβ were added for 30 min each. Each of these solutions was prepared in triplicate. The standard curve at the top was made from 0-1000 fmol preformed AβOs.
In the absence of cells, NU-9 has no effect on AβO formation. […] Next, a follow-up experiment was conducted using conditions that more closely mimicked those of cell culture. Coverslips were coated, as usual for cell culture, with poly-D-lysine, and then placed into culture dishes with media. No cells were added. Then 3 μM NU-9 and 500 nM AβOs were added for 30 min. In this assay, the previous result was replicated.
Instead, NU-9 exerts an effect at the cell membrane or intracellularly.

T1 sequence (P05067 672-713): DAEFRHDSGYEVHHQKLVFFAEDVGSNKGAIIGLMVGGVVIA

C[C@H](Oc1cc(C(F)(F)F)cc(C(F)(F)F)c1)C1CC(=O)CC(=O)C1 [NU-9, (S)-5-(1-(3,5-bis(trifluoromethyl)phenoxy)ethyl)cyclohexane-1,3-dione]
number of AβOs bound at dendrites ([1]; 3 μM NU-9 pre-treatment 30 min, then Aβ42 monomer 24-26 hr): significantly decreased the number of AβOs bound at dendrites; also recorded: able to reduce AβO binding in neurons treated with Aβ monomer | AβOs bound to neurons / formation of neuron-binding AβOs ([1]; 3 μM NU-9 pre-treatment 30 min, then Aβ monomer 500 nM, 30 min): mitigated the formation of neuron-binding AβOs; also recorded: significantly reduced AβOs bound to neurons; also recorded: significantly reduced the formation of neuron binding AβOs | dose-response of AβO suppression (visual analysis of images) ([1]; 3, 15, or 30 μM NU-9 30 min, then 500 nM Aβ42 30 min): reduced more extensively at higher doses of NU-9; also recorded: More extensive suppression of AβOs was observed at higher concentrations of NU-9 | reduction in AβOs at synapses compared to treatment with Aβ monomer alone ([1]; NU-9 3 μM, 30 min prior to Aβ monomer 500 nM, 30 min or 24 h): 81% and 55-80% | number of AβOs bound to neurons ([1]; NU-9 30 min pre-treatment, Aβ monomer 30 min or 24 h): reduces the number of bound amyloid beta oligomers; also recorded: dramatically decreased the number of Aβ oligomers (AβOs) bound to neurons; also recorded: marked reduction in AβOs at synapses; also recorded: effectively reduced the number of pathological species of AβOs | AβO concentration by NU2 dot blot, no cells ([2]; 3 μM NU-9 and Aβ in F12 media, 37° C., 24 hours): no change in AβO formation was observed; also recorded: No significant difference was observed | AβOs formed from Aβ monomer in conditioned media of untreated cells ([2]; NU-9 3 μM, 30 min added to media, Aβ monomer 500 nM, 30 min): did not reduce the number of AβOs formed from Aβ monomer; also recorded: Aβ was not reduce in any treatment condition | AβO formation from Aβ monomer in fresh media (dot blot) ([2]; NU-9 3-300 μM followed by Aβ, 30 min each): did not reduce ABO formation directly; also recorded: does not reduce AβO formation from Aβ monomer in cell-free solution | AβOs formed from Aβ monomer in conditioned media from cells treated with NU-9 ([2]; cells treated 3 μM NU-9 30 min, media removed, Aβ added 30 min): also did not reduce the number of AβOs formed from Aβ monomer in the absence of cells | number of AβOs bound to coverslips, no cells ([2]; poly-D-lysine coverslips in media, 3 μM NU-9 and 500 nM Aβ42, 30 min): did not affect AβO formation; also recorded: did not significantly affect the number of AβOs bound to coverslips
